≈ marks a conversion by molar mass, not a printed value.
What was measured:
Assay type in all cases: physicochemical
[1] = Bulk stability (solid state, 1 week; HPLC, XRPD, IC, color); set-up: key to CL (color): A: no change of color; B: slight discoloration; C: medium discoloration; D: strong discoloration; details: for Bulk (HPLC) Purity / CL (color): Solid state
Description: Bulk stability of free form Pattern B was evaluated at 25° C./92.5% RH in an open container, at 40° C./75% RH in an open container and at 60° C. in a tight container over 1 week.

[2] = Solubility at 37° C. in buffers and biorelevant media, XRPD of residual solid; details: for solubility at 2 h / solubility at 24 h: thermodynamic from solid
Procedure, shortened: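 Solids equivalent to 10 mg anhydrous free form were stirred in 5 mL of each medium (pH 1.2 HCl, pH 4.5 acetate, pH 6.8 phosphate, water, FaSSGF, FaSSIF-v1, FeSSIF-v1, HPMC/Pluronic in acetate) at 37 °C, 400 rpm. Sampled at 2 h and 24 h; supernatant analyzed by HPLC plus pH, 24 h residual solid by XRPD.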

[3] = Competitive equilibration and water activity experiments; details: water activity 0 to 0.4 at 5° C. and 0 to 0.6 at 25° C., equilibration 5 days
Description: Relative stability of the hydrate Pattern A and the anhydrate Pattern B was investigated by competitive equilibration and water activity experiments at 5° C. and 25° C.

[4] = Hygroscopicity by dynamic vapor sorption (DVS) at 25° C.; details: for Desorp. (%) / Sorp. (%): DVS 25° C.
Procedure, shortened: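 About 5–10 mg sample was cycled 40-0-95-0-40% RH in 10% steps at 25 °C with water vapour. Equilibrium criterion was 0.002 %/min dm/dt, with a minimum 60 min stability duration and a maximum 360 min per stage.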

[5] = 25° C./92.5% RH open, 40° C./75% RH open, 60° C. tight container
[6] = aqueous buffer, pH 4.5 acetate buffer (50 mM), 37° C.
[7] = aqueous buffer, pH 6.8 phosphate buffer (50 mM), 37° C.
[8] = aqueous with cosolvent or surfactant or cyclodextrin, 2% HPMC + 1% Pluronic F68 in pH 4.5 acetate buffer (50 mM), 37° C.
[9] = fassgf or other biorelevant, FaSSGF, pH 1.6, 37° C.
[10] = simulated gastric fluid, pH 1.2 HCl buffer, 37° C.

CCOc1cc(C(=O)N(C)Cc2cnc(CO)c3cn[nH]c23)ccc1-c1cc(F)cc(F)c1 [Free form Pattern A, 2-ethoxy-3′,5′-difluoro-N-((4-(hydroxymethyl)-1H-pyrazolo[4,3-c]pyridin-7-yl)methyl)-N-methyl-[1,1′-biphenyl]-4-carboxamide]
Bulk stability, chemical and physical [1, 5]: chemically and physically stable | Degradation by HPLC [1, 5]: no obvious degradation | Form change by XRPD [1, 5]: no form change | Bulk (HPLC) Purity ([1]; 25° C./92.5% RH, open): 97.9% | CL (color) ([1]; 25° C./92.5% RH, open): A | Bulk (HPLC) Purity ([1]; 40° C./75% RH, open): 97.7% | CL (color) ([1]; 40° C./75% RH, open): A | Bulk (HPLC) Purity ([1]; 60° C., closed): 97.8% | CL (color) ([1]; 60° C., closed): A | pH of supernatant at 24 h ([2]; 2% HPMC + 1% Pluronic F68 in pH 4.5 acetate buffer (50 mM), 37° C.): (4.6) | pH of supernatant at 24 h ([2]; FaSSGF, pH 1.6, 37° C.): (1.6) | pH of supernatant at 24 h ([2]; FaSSIF-v1, pH 6.5, 37° C.): (6.5) | pH of supernatant at 24 h ([2]; FeSSIF-v1, pH 5.0, 37° C.): (5.0) | pH of supernatant at 24 h ([2]; Water, 37° C.): (6.3) | solubility at 2 h [2, 6]: 14.4 µg/mL (≈ 31.8 µM) | solubility at 24 h [2, 6]: 13.7 µg/mL (≈ 30.3 µM) | solubility at 2 h [2, 7]: 4.7 µg/mL (≈ 10.4 µM) | solubility at 24 h [2, 7]: 4.3 µg/mL (≈ 9.5 µM) | solubility at 2 h [2, 8]: 24.4 µg/mL | solubility at 24 h [2, 8]: 34.3 µg/mL | solubility at 2 h [2, 9]: 746 µg/mL (≈ 1650 µM) | solubility at 24 h [2, 9]: 616 µg/mL (≈ 1360 µM) | pH of supernatant at 24 h ([2]; pH 1.2 HCl buffer, 37° C.): (1.2) | pH of supernatant at 24 h ([2]; pH 4.5 acetate buffer (50 mM), 37° C.): (4.5) | pH of supernatant at 24 h ([2]; pH 6.8 phosphate buffer (50 mM), 37° C.): (6.8) | solubility at 2 h [2, 10]: 425 µg/mL (≈ 940 µM) | solubility at 24 h [2, 10]: 402 µg/mL (≈ 888 µM) | solubility at 2 h ([2]; FaSSIF-v1, pH 6.5, 37° C.): 14.5 µg/mL (≈ 32 µM) | solubility at 24 h ([2]; FaSSIF-v1, pH 6.5, 37° C.): 17.7 µg/mL (≈ 39.1 µM) | solubility at 2 h ([2]; FeSSIF-v1, pH 5.0, 37° C.): 142 µg/mL (≈ 314 µM) | solubility at 24 h ([2]; FeSSIF-v1, pH 5.0, 37° C.): 168 µg/mL (≈ 372 µM) | solubility at 2 h ([2]; Water, 37° C.): 5.6 µg/mL (≈ 12.4 µM) | solubility at 24 h ([2]; Water, 37° C.): 4.6 µg/mL (≈ 10.2 µM) | Form conversion [3]: converted to anhydrate Pattern B | Desorp. (%) ([4]; 0% RH, 1st desorption): 0.01% | Sorp. (%) ([4]; 0% RH, 2nd sorption): 0.01% | Desorp. (%) ([4]; 10% RH, 1st desorption): 3.59% | Sorp. (%) ([4]; 10% RH, 2nd sorption): 0.09% | Desorp. (%) ([4]; 20% RH, 1st desorption): 3.74% | Sorp. (%) ([4]; 20% RH, 2nd sorption): 3.45% | Desorp. (%) ([4]; 30% RH, 1st desorption): 3.79% | Sorp. (%) ([4]; 30% RH, 2nd sorption): 3.78% | Desorp. (%) ([4]; 40% RH, 1st desorption): 3.83% | Sorp. (%) ([4]; 40% RH, 1st sorption): 3.87% | Desorp. (%) ([4]; 40% RH, 2nd desorption): 3.83% | Sorp. (%) ([4]; 40% RH, 2nd sorption): 3.82% | Desorp. (%) ([4]; 50% RH, 1st desorption): 3.93% | Sorp. (%) ([4]; 50% RH, 1st sorption): 3.90% | Desorp. (%) ([4]; 50% RH, 2nd desorption): 3.92% | Sorp. (%) ([4]; 50% RH, 2nd sorption): 3.87% | Desorp. (%) ([4]; 60% RH, 1st desorption): 4.00% | Sorp. (%) ([4]; 60% RH, 1st sorption): 3.94% | Desorp. (%) ([4]; 60% RH, 2nd desorption): 3.99% | Sorp. (%) ([4]; 60% RH, 2nd sorption): 3.93% | Desorp. (%) ([4]; 70% RH, 1st desorption): 4.07% | Sorp. (%) ([4]; 70% RH, 1st sorption): 4.01% | Desorp. (%) ([4]; 70% RH, 2nd desorption): 4.06% | Sorp. (%) ([4]; 70% RH, 2nd sorption): 4.00% | Desorp. (%) ([4]; 80% RH, 1st desorption): 4.17% | Sorp. (%) ([4]; 80% RH, 1st sorption): 4.12% | Desorp. (%) ([4]; 80% RH, 2nd desorption): 4.15% | Sorp. (%) ([4]; 80% RH, 2nd sorption): 4.11% | Desorp. (%) ([4]; 90% RH, 1st desorption): 4.35% | Sorp. (%) ([4]; 90% RH, 1st sorption): 4.33% | Desorp. (%) ([4]; 90% RH, 2nd desorption): 4.33% | Sorp. (%) ([4]; 90% RH, 2nd sorption): 4.30% | Desorp. (%) ([4]; 95% RH, 1st desorption): 4.61% | Sorp. (%) ([4]; 95% RH, 1st sorption): 4.61% | Desorp. (%) ([4]; 95% RH, 2nd desorption): 4.58% | Sorp. (%) ([4]; 95% RH, 2nd sorption): 4.58% | Water absorbed from 40% RH to 80% RH ([4]; DVS at 25° C.): It absorbed 0.3% | XRPD after DVS test ([4]; DVS at 25° C.): No form change

From patent US20250084080A1, “CRYSTALLINE AND SALT FORMS OF AN NLRP3 INHIBITOR” (BioAge Labs, Inc., priority 2023, published 2025)
